Results taken from patent US9365523B2, “Imidazolyl amide compounds and uses related thereto” (priority 2011, dated 2016).
Like-named read-outs stand apart in the source and are kept apart here.

Tests used:
[1] = in vitro; conditions: human S-9 fractions
Protocol: (§1) A) Incubation of the article with human liver S9 fractions for up to 60 minutes, followed by LC-MS/MS analysis of the material remaining. […] B) Incubation of JMN3-003 for up to 120 minutes with human plasma derived from mixed, healthy donors, followed by LC-MS/MS quantification of the material remaining.
To estimate metabolic stability of the article, JMN3-003 was mixed with liver S9 fractions (protein concentration 2.5 mg/ml) from pooled mixed gender humans (XenoTech) at a final concentration of 1 μM and reactions initiated by the addition of cofactors (1.14 mM NADPH, 1.43 mM glucose-6-phosphate, 1.43 mM uridine 5′-diphosphoglucuronic acid, 9.42 mM potassium chloride, 2.28 mM magnesium chloride) in 100 mM potassium phosphate buffer, pH 7.4. Samples were incubated at 37° C. with mixing, aliquots removed after 0, 15, 30 and 60 minutes and subjected to methanol precipitation. Cleared supernatants were analyzed by reversed-phase LC-MS/MS (Applied Biosystems API 4000 QTRAP with heated nebulizer (Turbo IonSpray for JMN5-166) and peak areas measured to calculate half life and percent of input compound remaining according to the formulas t½=(−0.693/slope of linear regression analysis of log transformed peak area versus) and % input remaining=(peak area of test compound at tx/peak area of test compound at t0)*100. Positive controls to assess the metabolic competency of the liver S9 fractions were 7-Ethoxycoumarin, Propranolol, and Verapamil (Sigma), which were analyzed in parallel to the article. To determine compound plasma stability, articles were mixed with freshly prepared human plasma at a final concentration of 0.5 mM and incubated at 37° C. for up to 120 minutes. Aliquots were removed at distinct time points as indicated, subjected to methanol precipitation of plasma proteins, and cleared supernatants analyzed by LC-MS/MS with detection of the compound at 254 nm. Values are expressed as percent of compound remaining at each time relative to the amount of that compound present at the starting time point.

[2] = test system: MeV-Alaska; experiment: In vitro virus adaptation (emergence of resistance); assay type: cell-based, measles virus; conditions: after 90 days of continued viral incubation
Protocol: MeV-Alaska remains sensitive to the compound after continued adaptation events for a 90-day period, while resistance (extensive viral CPE detectable in the presence of 30 μM compound) to pathogen directed AS-136A emerges in step-wise adaptations after 15-25 days. Three independent adaptations (represented by solid, dotted and dashed lines, respectively) were pursued for each compound.
To assess the emergence of viral resistance to inhibition, adaptation attempts were carried out. […] Equally infected cells treated with the virus polymerase targeted RdRp inhibitor AS-136A were examined in parallel for comparison. When cultures became overconfluent, cells were diluted and reseeded for continued incubation in the presence of the same compound concentration as before. At detection of extensive cell-to-cell fusion, cell-associated viral particles were released by two freeze/thaw cycles, diluted 10-fold and used for parallel infections of fresh cell monolayers in the presence of compound at unchanged and doubled concentrations. Cultures treated with the highest compound concentrations in which virus-induced cytopathicity became eventually detectable were used for further adaptation. The approach was terminated after 90 days of continued incubation or when virus-induced cytopathicity was readily detectable in the presence of 30 μM compound.

[3] = test system: MeV RdRp
[4] = test system: HeLa cells; experiment: Flow-cytometric analysis of cell cycle progression; conditions: JMN3-003 36 hours
Protocol: A) FACS analysis of acridine orange-stained HeLa cells incubated in the presence of JMN3-003 or hydroxyurea for 36 hours, or nocodazole for 16 hours. Dark grey shaded areas show unstained cells, light grey areas correspond to vehicle-treated control cells, and areas under open black curves represent treated cell populations. Dashed vertical lines indicate 2 N (G1/S) and 4N (G2/M) DNA contents. Data shown are representative of three experiments and reflect 10,000 events/treatment conditions.
Green fluorescence at 525 nm resulting from DNA intercalating acridine orange was then measured using a BD LSRII flow cytometer and FlowJo software (Tree Star) for data analysis. For comparison, unstained and stained, solvent-only exposed cells were examined in parallel.

[5] = test system: MeV-Alaska particles; experiment: Virus pre-incubation (virucidal activity) assay; assay type: cell-based, measles virus; conditions: 1.0 μM, 60 minutes
Protocol: D) JMN3-003 lacks virucidal activity.
Reference wells were kept at 1.0 μM JMN3-003 for the duration of the experiment.

[6] = test system: influenza A/WSN; experiment: Quantitation of influenza A/WSN antigenome and released progeny genome copies; assay type: cell-based, influenza A virus; conditions: MDCK cells, 24 hours
[7] = test system: MeV-Alaska mRNA and antigenome; assay type: cell-based, measles virus; conditions: 100 nM
[8] = test system: influenza A/WSN; assay type: cell-based, influenza A virus
[9] = test system: MeV H and F mediated membrane fusion; experiment: MeV glycoprotein-mediated cell-to-cell fusion assay; conditions: microscopic and luciferase reporter-based
[10] = test system: MeV-Alaska; experiment: Post-infection time-of-addition study; conditions: 1.0 μM
[11] = test system: MeV-Alaska; experiment: Cell priming (pre-treatment and wash-out before infection); conditions: 1.0 μM, 60 minutes pre-treatment
Protocol: To assess cell priming, Vero-Slam cells (3×10^5 cells/wellin a 12-well plate format) were incubated in the presence of JMN3-003 at 1.0 μM for one hour at 37° C. at the indicated time points pre-infection, followed by extensive washing and further incubation in growth media. Immediately before infection, cells were reseeded at a density of 2.5×10^5 per well and infected with MeV-Alaska at an MOI=0.2 pfu/cell. […] Cell-associated viral particles were then harvested and infectious titers determined by TCID50 titration.

[12] = test system: HeLa, Vero-Slam, MDCK cell lines and primary human PBMCs; experiment: Quantification of compound cytotoxicity (metabolic activity of cells)
Protocol: A non-radioactive cytotoxicity assay (CytoTox 96 Non-Radioactive Cytotoxicity Assay, Promega) was employed to metabolic activity of cell after exposure to a compound. In a 96-well plate format, 10,000 cells per well were incubated at 37° C. for 24 hours in four replicates per concentration tested in the presence of compound ranging from 75 μM to 293 nM in two-fold dilutions. Conversion of a tetrazolium salt (INT) into a colored formazan product by cellular lactate dehydrogenase released into the culture supernatants was then measured at 490 nm using a BioRad plate reader. […] Values were plotted in dose-response curves and, if applicable, CC50 concentrations calculated using the Prism 5 software package.

[13] = 120-minute incubation
Protocol: as §1
To estimate metabolic stability of the article, JMN3-003 was mixed with liver S9 fractions (protein concentration 2.5 mg/ml) from pooled mixed gender humans (XenoTech) at a final concentration of 1 μM and reactions initiated by the addition of cofactors (1.14 mM NADPH, 1.43 mM glucose-6-phosphate, 1.43 mM uridine 5′-diphosphoglucuronic acid, 9.42 mM potassium chloride, 2.28 mM magnesium chloride) in 100 mM potassium phosphate buffer, pH 7.4. […] Cleared supernatants were analyzed by reversed-phase LC-MS/MS (Applied Biosystems API 4000 QTRAP with heated nebulizer (Turbo IonSpray for JMN5-166) and peak areas measured to calculate half life and percent of input compound remaining according to the formulas t½=(−0.693/slope of linear regression analysis of log transformed peak area versus) and % input remaining=(peak area of test compound at tx/peak area of test compound at t0)*100. Positive controls to assess the metabolic competency of the liver S9 fractions were 7-Ethoxycoumarin, Propranolol, and Verapamil (Sigma), which were analyzed in parallel to the article. […]

[14] = test system: cdc2-cyclin B kinase; assay type: cell-based
[15] = test system: Vero cells
Protocol: Values reflect cell divisions per day and are based on averages of six independent replicate experiments±SEM.
Cells were then washed extensively and reseeded at a density of 1×10^5 cells per well, followed by continued incubation at 37° C. and assessment of life/dead cell numbers every 24 hours using a Countess automated cell counter (Invitrogen). Cells were reseeded as before when fastest growing cultures approached confluency. Growth rates were calculated for each 24-hour time interval using the Prism software package (GraphPad Software Inc.) based on the formula Y=Y0*exp(K*X) with Y equaling life cell numbers, Y0 the Y value at the starting time (t0), and K the growth constant equaling ln(2)/doubling-time.

[16] = test system: virus-encoded MeV-F and influenza A/WSN M2; assay type: cell-based; conditions: 100 nM; paramyxovirus or orthomyxovirus infection
[17] = test system: MeV-Alaska; assay type: cell-based, measles virus; conditions: primary human PBMCs

For `COc1ccc(-n2c(SC(C)C(=O)Nc3ccc(C)cc3Cl)nc3ccccc32)cc1` (stereo not drawn) [JMN3-003], the extrapolated half-life [1] was “approximately 200 minutes”, the “input material remaining intact” value ([1]; 60-minute exposure) was “approximately 80%” and the “change in the tolerated dose” value [2] was “only marginal increases”. The “compound concentration at which luciferase reporter expression was fully blocked” value [3] was “approximately 100 nM”, the “DNA content of treated cells by flow cytometry” value [4] was “accumulation of cells in a single population with 2N DNA content” and the “antiviral effect of preincubation of viral particles (virucidal activity)” value [5] was “lacked any appreciable antiviral effect”. For the same compound, the “drop in relative viral antigenome levels” value [6] was greater than 100 fold, the “reduction in genome copies of released progeny virions” value [6] was > 10,000 fold and the “reduction of viral mRNA and antigenome copy numbers relative to vehicle” value [7] was greater than 100 fold. The A/WSN inhibition [8] was “vanished entirely”, the A/WSN inhibition ([8]; some rodent cell lines) was “less effective” and the “MeV glycoprotein-mediated cell-to-cell fusion” value [9] was “indistinguishable from that seen in vehicle-treated controls”. For the same compound, the “inhibition profile in time-of-addition experiment” value [10] was “very closely resembled the profile of the AS-136A RdRp blocker class”, the “inhibitory effect after pre-treatment of cells and wash-out” value [11] was “any substantial inhibitory effect was not detect” and the “Metabolic activity of cells exposed to compound” value [12] was “unchanged”. The direct cytotoxicity [12] was “low”, the “stability in human plasma” value [13] was “virtually unaffected” and the “steady state levels of phosphorylated cdc2-cyclin B kinase” value [14] was “increased steady state levels of phosphorylated cdc2-cyclin B kinase”. For the same compound, the “proliferation rates after removal of the compound” value [15] was “resumed those of untreated control cells”, the “expression of virus-encoded proteins” value [16] was “fully blocked” and the “inhibitory activity against MeV-Alaska” value [17] was “extended fully”.
